Read-outs that look alike come from different tables or passages of the source.
Assay: Study 1: single dose cross-over pharmacokinetics, oral vs intracolonic Na.MPA
Set-up: species or system male beagle dogs
Details: dog, in vivo
Description: Two single dose cross-over studies were conducted using a canine model (male beagle dogs) to evaluate the potential of an enteric coated-extended release sodium mycophenolate formulation (“EC-ER-Na.MP”). In a first cross-over study, the pharmacokinetics of MPA and its metabolites (MPAG and AcMPAG) following oral dosing of 180 mg of EC-Na.MPA was compared with intracolonic (IC) administration of Na.MPA. In a second cross-over study, 270 mg of an EC-ER-Na.MPA formulation was administered in the both fed and fasted states and pharmacokinetics were compared with oral administration of 10 mg/kg MMF in the fasted state. Both studies were conducted by Absorption Systems (San Diego, Calif.).
Study 1: For three days prior to IC dosing, dogs (n=5) were offered a soft diet consisting of canned wet food (Pedigree® Choice Cuts). Otherwise, the dogs were offered their standard diet (LabDiet 5006 laboratory canine diet). Prior to each dosing event, the dogs were fasted for 12 hours prior to dosing until 4 hours post-dose, when food was returned. Animals had free access to water throughout the study. Prior to IC dosing, each dog was given a non-stimulant enema approximately 1 hour prior to dosing to remove feces from the colon. Prior to PO dosing, each dog (n=5) was pre-treated with an intramuscular dose of pentagastrin (6 μg/kg) approximately 30 minutes prior to dosing. Capsules were administered by placement in the back of the throat followed by a 10 mL flush with water.
Each dog received a total dose of 180 mg of MPA for each dose. For IC dosing, MPA was delivered as a solution via an endoscope, and for PO dosing each dog received a single Myfortic® 180 mg enteric coated capsule. Following administration, blood samples were collected up to 24 hours post-dose. Plasma concentrations of MPA, MPAG, and AcMPAG were determined with a qualified LC-MS/MS method, and pharmacokinetic parameters were determined with WinNonlin v.6.4 software.

With `COc1c(C)c2c(c(O)c1C/C=C(\C)CCC(=O)O)C(=O)OC2` [MPA, Mycophenolic acid] the Cmax (male, beagle, 180 mg) was 29500 ± 12600 ng/mL, the “MPA Cmax” value (male, beagle, 180 mg) was 29460 ng/mL and the half-life (male, beagle, 180 mg) was 5.55 ± 1.77 h. The Cmax (male, beagle, po, 180 mg) was 27300 ± 12000 ng/mL, the “MPA Cmax” value (male, beagle, po, 180 mg) was 27320 ng/mL and the half-life (male, beagle, po, 180 mg) was 4.49 h.
For `COc1c(C)c2c(c(O)c1C/C=C(\C)CCC(=O)O)C(=O)OC2` [Na•MPA, sodium mycophenolate], the “MPA:metabolite ratios compared with oral MMF or enteric-coated Na.MPA” value was “higher MPA:metabolite ratios”, the MRT last (male beagle dogs, plasma, ORAL 180 mg (Myfortic enteric coated capsule), single dose, fasted, read-out: MPA MRTlast) was 2.86 h and the AUC(0-inf) (male, beagle, 180 mg) was 31900 ng·h/mL. For the same molecule, the AUC(0-t) (male, beagle, 180 mg) was 31000 ng·h/mL, the “MPA Cmax” value (male, beagle, 180 mg) was 29460 ng/mL and the “MPA t1/2” value (male, beagle, 180 mg) was 5.55 h. For the same molecule, the “MPA/AcMPAG Ratio (AUClast)” value (male, beagle, 180 mg) was 171.19, the “MPA/MPAG Ratio (AUC∞)” value (male, beagle, 180 mg) was 2.45 and the MRT last (male, beagle, 180 mg) was 2.76 h. The Tmax (male, beagle, 180 mg) was 0.23 h, the AUC(0-inf) (male, beagle, po, 180 mg) was 45700 ng·h/mL and the AUC(0-t) (male, beagle, po, 180 mg) was 36400 ng·h/mL. For the same molecule, the “MPA Cmax” value (male, beagle, po, 180 mg) was 27320 ng/mL, the “MPA t1/2” value (male, beagle, po, 180 mg) was 4.49 h and the “MPA/AcMPAG Ratio (AUClast)” value (male, beagle, po, 180 mg) was 88.40. For the same molecule, the “MPA/MPAG Ratio (AUClast)” value (male, beagle, po, 180 mg) was 1.42, the “MPA/MPAG Ratio (AUC∞)” value (male, beagle, po, 180 mg) was 1.29 and the Tmax (male, beagle, po, 180 mg) was 1 h.
